According to PubChem BioAssay (NCI):
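Results reflect a 48-hour exposure of cells in 96-well plates to compound at five concentrations. TGI is the concentration that stops growth completely.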

Legend:
Experiment in all cases: NCI tumour cell line growth inhibition, 48 h
DLD-1 colon = system: DLD-1 colon
DMS 114 small cell lung = system: DMS 114 small cell lung
DMS 273 small cell lung = system: DMS 273 small cell lung
HOP-18 NSCLC = system: HOP-18 NSCLC
KM20L2 colon = system: KM20L2 colon
LXFL 529 NSCLC = system: LXFL 529 NSCLC
M19-MEL melanoma = system: M19-MEL melanoma
XF 498 CNS = system: XF 498 CNS
SNB-78 CNS = system: SNB-78 CNS
RXF-631 renal = system: RXF-631 renal

Compound	TGI (DLD-1 colon)	TGI (DMS 114 small cell lung)	TGI (DMS 273 small cell lung)	TGI (HOP-18 NSCLC)	TGI (KM20L2 colon)	TGI (LXFL 529 NSCLC)	TGI (M19-MEL melanoma)	TGI (XF 498 CNS)	TGI (SNB-78 CNS)	TGI (RXF-631 renal)
Cc1cnc2c(c1)C(=O)C1=C(OC(C)(C)CC1O)C2=O (configuration not stated)	33.5 µM	22.4 µM	25.4 µM	29.3 µM	32.5 µM	29.9 µM	9.86 µM	34 µM		
NCCCCC(=O)c1cccnc1	> 100 µM	> 100 µM	> 100 µM	> 100 µM	> 100 µM	> 100 µM	> 100 µM	> 100 µM	> 100 µM	
CC(=O)C(CN(C)C)C(c1ccccc1)c1c(O)c2ccccc2oc1=O (configuration not stated)	> 100 µM	> 100 µM	> 100 µM	> 100 µM	> 100 µM	> 100 µM	> 100 µM	> 100 µM	> 100 µM	
NC(=O)N/N=C(/Cc1nc2ccc(C(=O)c3ccccc3)cc2[nH]c1=O)C(=O)Nc1ccc(C(F)(F)F)cc1[N+](=O)[O-]	> 100 µM	> 100 µM	> 100 µM	> 100 µM	> 100 µM	> 100 µM	> 100 µM	> 100 µM	> 100 µM	> 100 µM
Cc1cc(=O)[nH]c(NNC(C#N)c2c(O)ccc3ccccc23)n1 (configuration not stated)	24.7 µM	5.81 µM	18.7 µM	> 100 µM	95.7 µM	47 µM	25 µM		> 100 µM	
CC1(S)CC2C(CC1Sc1ccccc1)C2(C)C (configuration not stated)	> 100 µM	> 100 µM	> 100 µM	> 100 µM		> 100 µM	> 100 µM	> 100 µM	> 100 µM	
